Data as given in US20250002471A1 (Gilead Sciences, Inc., priority 2020, published 2025).

Assays:
TLR8 = target: T1, TLR8 (Homo sapiens, UniProt Q9NR97); experiment: TLR8 human PBMC cell-based assay, TLR8 agonist Compound A stimulation, cytokine (TNFa and IL12p40) readout; details: human PBMCs, Compound A 800 nM, 6 hours; Table 26; read-out: TLR-8 EC50
T1 construct: lymphocytes, monocytes and dendritic cells that express TLR7, TLR8 and TLR9; endogenous in cells; host or cells: human PBMCs from healthy donors
T1 sequence (Q9NR97 27-1041): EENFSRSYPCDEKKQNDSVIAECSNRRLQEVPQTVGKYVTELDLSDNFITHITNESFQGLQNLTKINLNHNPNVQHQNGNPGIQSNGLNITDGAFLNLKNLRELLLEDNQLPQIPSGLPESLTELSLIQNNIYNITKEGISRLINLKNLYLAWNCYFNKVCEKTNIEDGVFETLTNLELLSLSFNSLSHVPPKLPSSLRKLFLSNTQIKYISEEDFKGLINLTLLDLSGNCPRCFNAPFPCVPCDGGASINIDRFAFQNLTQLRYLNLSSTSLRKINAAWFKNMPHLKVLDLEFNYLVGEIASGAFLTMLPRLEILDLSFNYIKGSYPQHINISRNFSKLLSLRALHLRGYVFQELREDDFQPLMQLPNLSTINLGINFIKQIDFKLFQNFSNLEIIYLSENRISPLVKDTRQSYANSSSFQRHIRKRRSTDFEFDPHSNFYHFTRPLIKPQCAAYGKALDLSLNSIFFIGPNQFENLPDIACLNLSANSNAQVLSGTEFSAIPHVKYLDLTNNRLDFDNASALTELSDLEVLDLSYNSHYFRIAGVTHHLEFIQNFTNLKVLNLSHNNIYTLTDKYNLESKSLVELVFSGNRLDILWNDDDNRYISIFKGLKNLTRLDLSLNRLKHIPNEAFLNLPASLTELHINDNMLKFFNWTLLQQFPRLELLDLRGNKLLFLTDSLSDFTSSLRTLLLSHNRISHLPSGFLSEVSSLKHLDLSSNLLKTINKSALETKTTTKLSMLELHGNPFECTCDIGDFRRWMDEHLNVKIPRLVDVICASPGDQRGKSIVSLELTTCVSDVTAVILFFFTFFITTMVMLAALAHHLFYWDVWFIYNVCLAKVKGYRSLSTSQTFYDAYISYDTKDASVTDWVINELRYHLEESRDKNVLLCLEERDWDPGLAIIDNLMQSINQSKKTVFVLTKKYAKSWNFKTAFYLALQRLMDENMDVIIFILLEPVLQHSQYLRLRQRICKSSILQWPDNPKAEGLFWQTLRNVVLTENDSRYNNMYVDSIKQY
Protocol: Cryopreserved human PBMCs from healthy donors were thawed and resuspended in RPMI-1640 media with L-glutamine (Corning) supplemented with 10% Fetal Bovine Serum (Hyclone) and 1X Penicillin-Streptomycin (Corning). After counting, the cell density was adjusted to 2 million cells/ml and incubated for 1 hour at 37° C., 5% CO2 for recovery. Following the recovery, the cells were plated by adding 50p per well (100,000 cells) to 384-well cell culture plates (Greiner) containing 250nl of test antagonists in 100% DMSO per well, in a 10 points dose response in quadruplicates. PBMCs were incubated in the presence of antagonists for one hour at 37° C., 5% CO2 before being stimulated with TLR8 agonist. Compound A (Gilead Sciences, U.S. Pat. No. 10,285,990) was used as the TLR8 agonist at a final concentration of 800 nM. PBMCs were incubated in the presence of antagonist and the TLR8 agonist for an additional 6 hours at 37° C., […]. At the end of the incubation, the cell culture plates were centrifuged at 500 g for 5 min, and the cell culture supernatant was collected. The level of cytokines (TNFa and IL12p40) in the supernatant was measured by electrochemiluminescence immunoassays (Mesoscale Discovery) following manufacturer's recommended protocols. The level of cytokine measured was plotted against the antagonist concentration and fitted to a sigmoidal function to determine the EC50, which are shown below in Table 11.

TLR7 = target: T2, TLR7 (Homo sapiens, UniProt Q9NYK1); experiment: Human PBMC cell-based assay, TLR7 agonist GS-986 stimulation, cytokine (IL-6 and IFNα) readout; details: human PBMCs, GS-986 400 nM, 6 hours; Table 26; read-out: TLR-7 EC50
T2 construct: lymphocytes, monocytes and dendritic cells that express TLR7, TLR8 and TLR9; endogenous in cells; host or cells: human PBMCs from healthy donors
T2 sequence (Q9NYK1 27-1049): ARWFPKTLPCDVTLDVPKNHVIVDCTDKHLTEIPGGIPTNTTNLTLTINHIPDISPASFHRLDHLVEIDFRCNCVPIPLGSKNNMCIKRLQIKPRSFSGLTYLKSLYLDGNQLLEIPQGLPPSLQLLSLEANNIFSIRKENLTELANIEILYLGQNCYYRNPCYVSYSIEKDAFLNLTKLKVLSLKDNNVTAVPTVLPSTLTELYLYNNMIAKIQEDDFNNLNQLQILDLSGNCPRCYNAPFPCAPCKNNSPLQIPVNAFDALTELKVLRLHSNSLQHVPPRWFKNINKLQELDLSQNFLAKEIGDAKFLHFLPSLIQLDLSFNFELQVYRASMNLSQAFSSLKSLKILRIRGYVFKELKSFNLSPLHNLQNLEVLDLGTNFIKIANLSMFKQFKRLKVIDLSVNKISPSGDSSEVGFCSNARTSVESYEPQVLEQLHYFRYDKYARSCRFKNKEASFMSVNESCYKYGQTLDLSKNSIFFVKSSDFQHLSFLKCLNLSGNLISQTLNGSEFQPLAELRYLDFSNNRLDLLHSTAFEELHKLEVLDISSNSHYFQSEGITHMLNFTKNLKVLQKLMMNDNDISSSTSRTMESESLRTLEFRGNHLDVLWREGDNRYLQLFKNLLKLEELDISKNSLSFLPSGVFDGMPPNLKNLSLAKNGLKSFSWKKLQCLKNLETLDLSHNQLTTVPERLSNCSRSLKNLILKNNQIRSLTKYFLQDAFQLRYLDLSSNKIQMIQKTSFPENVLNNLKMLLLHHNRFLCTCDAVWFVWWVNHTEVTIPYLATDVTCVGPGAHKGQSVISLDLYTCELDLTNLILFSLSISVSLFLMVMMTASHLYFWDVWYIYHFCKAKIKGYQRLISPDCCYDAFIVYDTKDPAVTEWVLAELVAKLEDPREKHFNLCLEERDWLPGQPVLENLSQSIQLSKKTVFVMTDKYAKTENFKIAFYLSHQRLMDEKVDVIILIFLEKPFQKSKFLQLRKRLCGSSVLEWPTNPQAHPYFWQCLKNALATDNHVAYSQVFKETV
Method in brief: (§1)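 Cryopreserved healthy-donor PBMCs (100,000 cells/well, RPMI-1640 + 10% FBS) preincubated 1 h at 37 °C with antagonist (10-point dose response), then stimulated 6 h with GS-986 (400 nM final, TLR7) or ODN-2216 (3 μM final, TLR9). Supernatant IL-6 and IFNα measured by electrochemiluminescence immunoassay; EC50 from sigmoidal fit.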

TLR9 = target: T3, TLR9 (Homo sapiens, UniProt Q9NR96); experiment: Human PBMC cell-based assay, TLR9 agonist ODN-2216 stimulation, cytokine (IL-6 and IFNα) readout; details: human PBMCs, ODN-2216 3 μM, 6 hours; Table 26; read-out: TLR-9 EC50
T3 construct: lymphocytes, monocytes and dendritic cells that express TLR7, TLR8 and TLR9; endogenous in cells; host or cells: human PBMCs from healthy donors
T3 sequence (Q9NR96 26-1032): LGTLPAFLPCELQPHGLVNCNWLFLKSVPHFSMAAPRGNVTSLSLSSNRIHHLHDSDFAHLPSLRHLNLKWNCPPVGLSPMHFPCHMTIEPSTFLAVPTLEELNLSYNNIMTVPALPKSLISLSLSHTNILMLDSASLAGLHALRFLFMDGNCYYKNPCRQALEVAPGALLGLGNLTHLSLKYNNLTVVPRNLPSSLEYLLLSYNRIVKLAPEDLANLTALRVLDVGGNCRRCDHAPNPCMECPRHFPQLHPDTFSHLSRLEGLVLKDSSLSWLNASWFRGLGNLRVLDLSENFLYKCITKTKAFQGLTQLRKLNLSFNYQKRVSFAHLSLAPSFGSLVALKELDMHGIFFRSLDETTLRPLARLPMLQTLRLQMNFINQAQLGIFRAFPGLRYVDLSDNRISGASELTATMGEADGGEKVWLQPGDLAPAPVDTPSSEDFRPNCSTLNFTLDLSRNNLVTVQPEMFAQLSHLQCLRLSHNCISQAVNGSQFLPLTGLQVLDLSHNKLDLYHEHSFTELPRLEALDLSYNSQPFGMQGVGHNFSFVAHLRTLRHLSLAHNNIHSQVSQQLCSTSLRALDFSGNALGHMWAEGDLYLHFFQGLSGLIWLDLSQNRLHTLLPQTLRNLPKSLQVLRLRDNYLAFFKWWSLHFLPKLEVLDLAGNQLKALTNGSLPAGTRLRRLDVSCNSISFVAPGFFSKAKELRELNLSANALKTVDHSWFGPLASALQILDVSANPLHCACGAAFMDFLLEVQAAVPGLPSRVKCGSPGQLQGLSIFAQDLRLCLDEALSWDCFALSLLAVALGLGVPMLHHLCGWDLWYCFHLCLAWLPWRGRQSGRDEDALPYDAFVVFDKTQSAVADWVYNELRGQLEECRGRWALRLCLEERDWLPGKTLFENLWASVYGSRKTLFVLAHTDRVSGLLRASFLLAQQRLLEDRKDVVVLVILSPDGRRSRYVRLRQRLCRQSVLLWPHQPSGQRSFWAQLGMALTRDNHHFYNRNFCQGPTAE
Method in brief: as §1

Compound	EC50 (TLR8)	EC50 (TLR7)	EC50 (TLR9)
CCc1c(-c2cc(OC)c3ncnn3c2)[nH]c2cc(-c3ccc(N4CCN(C(=O)C56CC(CN5)C6)CC4)nc3)ccc12 [Example 174]	3.33 nM	0.12 nM	
Cc1cc(-c2[nH]c3cc(-c4ccc(N5CCN(CCN(C)C)CC5)nc4)ccc3c2C)cc(C)n1 [Example 114, 2-(4-(5-(2-(2,6-dimethylpyridin-4-yl)-3-methyl-1H-indol-6-yl)pyridin-2-yl)piperazin-1-yl)-N,N-dimethylethan-1-amine]		21.6 nM	36.1 nM
Cc1cc(-c2[nH]c3cc(-c4ccc(NC5CCNCC5)nc4)ccc3c2C)cc(C)n1 [Example 24]		8.3 nM	89.6 nM
CNC(=O)CN1CCN(c2ccc(-c3ccc4c(C)c(-c5cc(C)nc(C)c5)[nH]c4c3)cn2)CC1 [Example 113, 2-(4-(5-(2-(2,6-dimethylpyridin-4-yl)-3-methyl-1H-indol-6-yl)pyridin-2-yl)piperazin-1-yl)-N-methylacetamide]		68.8 nM	123 nM
Cc1c(-c2cnn3c2CCC3)[nH]c2cc(-c3ccc(N4CCNCC4)nc3)ccc12 [Example 89]		> 1000 nM	428 nM
Cc1cc(-c2[nH]c3cc(-c4ccc(N5CCNCC5)nc4)ccc3c2C)cc(N)n1 [Example 78]		33.1 nM	121 nM
Cc1cc(-c2[nH]c3cc(-c4cnn(C5CCCNC5)c4)ccc3c2C)cc(C)n1 (stereo not shown) [Example 18]		89.9 nM	87.6 nM
Cc1cc(-c2[nH]c3cc(C#CC4CCNCC4)ccc3c2C)cc(C)n1 [Example 100, 2-(2,6-dimethylpyridin-4-yl)-3-methyl-6-(piperidin-4-ylethynyl)-1H-indole]		437 nM	101 nM
Cc1c(-c2cnc(C(F)(F)F)nc2)[nH]c2cc(-c3ccc(N4CCNCC4)nc3)ccc12 [Example 83]		778 nM	756 nM
Cc1cc(-c2[nH]c3cc(-c4ccc(N5CCNCC5)nc4C)ccc3c2C)cc(C)n1 [Example 4]		26.1 nM	153 nM
Cc1c(-c2cnn(C)c2)[nH]c2cc(-c3ccc(N4CCNCC4)nc3)ccc12 [Example 87]		2180 nM	583 nM
Cc1cc(-c2[nH]c3cc(-c4ccc(N5CCN(C(=O)[C@H]6CCCN6)CC5)nc4)ccc3c2C)cc(C)n1 [Example 134, (R)-2-(2,6-dimethylpyridin-4-yl)-3-methyl-6-(6-(4-prolylpiperazin-1-yl)pyridin-3-yl)-1H-indole]		41.9 nM	58.9 nM
Cc1cc(-c2[nH]c3cc(-c4ccc5c(c4)CNC5)ccc3c2C)cc(C)n1 [Example 15]		53.6 nM	55.6 nM
Cc1cc(-c2[nH]c3cc(-c4nc(C5CCNCC5)no4)ccc3c2C)cc(C)n1 [Example 189]		108 nM	217 nM
COc1cc(-c2ccc3c(C)c(-c4cc(C)nc(C)c4)[nH]c3c2)ccn1 [Example 56, 2-(2,6-dimethylpyridin-4-yl)-6-(2-methoxypyridin-4-yl)-3-methyl-1H-indole]		374 nM	3040 nM
Cc1cc(-c2[nH]c3cc(-c4cccc(C(=O)N5CCN6CCC5C6)c4)ccc3c2C)cc(C)n1 (stereo not shown) [Example 127]		98.9 nM	74.7 nM
Cc1cc(-c2[nH]c3cc(-c4ccc(N5CC[C@@H](N)C5)nc4)ccc3c2C)cc(C)n1 [Example 31]		8.3 nM	13.5 nM
Cc1c(-c2cc(C)c3ncnn3c2)[nH]c2nc(C3CCNCC3)ccc12 [Example 153]		108 nM	1580 nM
Cc1cc(-c2[nH]c3cc(-c4ccc(N5CCNCC5)nc4)ccc3c2C2CC2)cc(C)n1 [Example 63, 3-cyclopropyl-2-(2,6-dimethylpyridin-4-yl)-6-(6-(piperazin-1-yl)pyridin-3-yl)-1H-indole]		4.8 nM	189 nM
CCc1c(-c2cc(C)nc(C)c2)[nH]c2cc(C3CCNCC3)ccc12 [Example 49, 2-(2,6-dimethylpyridin-4-yl)-3-ethyl-6-(piperidin-4-yl)-1H-indole]		549 nM	358 nM
